Experimental data reported in paper PMC11336141.
“Also recorded” adds a separate entry of the source. Bridge positions count the residues as written; N and C are the ends. Square brackets hold non-standard residues; d marks the D form. Peptide text beside a SMILES is read from it.

How the values were obtained:
human SSTR2 (Gi1) = biological target: T1, human SSTR2 (Gi1) (Homo sapiens, UniProt P30874); assay: G protein activation (BRET dissociation) assay, Gi1 at hSSTR2; type: cell-based;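 for Emax ± S.E.M.: percent of the maximal response to the reference somatostatin agonist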
T1 construct: host or cells: HEK293T cells
T1 sequence (P30874 whole entry): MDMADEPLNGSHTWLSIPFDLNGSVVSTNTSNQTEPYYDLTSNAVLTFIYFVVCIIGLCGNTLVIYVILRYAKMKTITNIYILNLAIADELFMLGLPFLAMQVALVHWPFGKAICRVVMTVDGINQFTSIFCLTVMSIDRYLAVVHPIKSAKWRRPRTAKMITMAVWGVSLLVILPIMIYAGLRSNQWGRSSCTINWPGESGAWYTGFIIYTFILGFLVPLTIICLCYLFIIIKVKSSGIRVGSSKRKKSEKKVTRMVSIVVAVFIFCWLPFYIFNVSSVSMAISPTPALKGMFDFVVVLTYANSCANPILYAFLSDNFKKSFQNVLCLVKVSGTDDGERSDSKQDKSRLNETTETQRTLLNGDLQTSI
Experimental: (§2) HEK293T cells were seeded onto 6-well plates at a density of 750,000 cells/well. […] 16 to 24 hours post-transfection, HEK293T cells were seeded onto white 96 well plate (PerkinElmer) coated with poly-L-lysine (PLL) at a density of 40,000 cells/well and were allowed to grow overnight. On the day of assay, cells were washed once with phosphate-based saline (PBS) and 80 µL of assay buffer which composed of PBS with 0.5 mM MgCl2 and 0.1% glucose, pH 7.4, were added onto each well. 10 µL of Nluc luciferase substrate furimazine (Promega) were added onto each well and incubated for 3 minutes.
(§3) The net BRET ratio was determined by subtracting the BRET ratio of drugs with the BRET ratio of vehicle control. Net BRET ratio over time was then plotted using GraphPad Prism (v.9.4.1), and the area-under-curve of net BRET ratio over time course for each ligand concentration tested were then determined and plotted against log(concentration) of drugs tested. […] Concentration response curves were fitted with a 4-parameter logistic Eq. (1) using GraphPad Prism (v.9.4.1):1 Y=Emin+(Emax−Emin)/1+10^logEC50−X×Hillslope

Dr-sstr2a (GoA) = assay: G protein dissociation assay, GoA at Dr-sstr2a; type: cell-based, zebrafish (Danio rerio); conditions: HEK293T cells
Excerpt: (§1) 3xHA-tagged human SSTR2 construct was obtained from cDNA.org (cDNA resource center, Bloomsburg PA, US). […] Kirill Martemyanov (University of Florida, US). Tango constructs for human SSTR1-5 were kind gifts from Prof. Bryan Roth (University of North Carolina, Chapel Hill, US) (Addgene kit # 1000000068). Tango constructs for fish Dr-sstr2a (sequence accession number: XP_005170178.1) and Dr-sstr2b (sequence accession number: XP_017210358.1) were custom-synthesized by Twist Biosciences using the Tango construct template as described in Kroeze et al., 2015[28]. 3xHA-tagged Dr-sstr2a and 3xHA tagged Dr-sstr2b constructs were inserted into pcDNA3.1 backbone. All DNA constructs were sequenced and confirmed prior to use.
Error bars represent means ± S.E.M. of n = 3 in technical duplicates.

[1] = Solubility in aqueous solutions (observation); conditions: comparison of des-glyco nG1, pG1 and venom fraction
human SSTR2 = human SSTR2 (Homo sapiens, UniProt P30874); assay: Quantification of ligand bias (operational model), G proteins at hSSTR2; type: cell-based; parameters: Bryan Roth (Addgene) Addgene kit # 1000000068; host or cells: HTLA cells; conditions: for ∆log(tau/Ka): LogR(ligand) - LogR(SST-14); for LogR ± S.E.M.: log(τ/KA); for RE: relative efficacy; for ∆LogR ± S.E.M.: relative to SS-14; for G protein bias in words: ∆Log(τ/KA), SS-14 as reference
Chain of human SSTR2 (P30874 whole entry): as above
Excerpt: Ligand bias were quantified using the method described in[35]. […] The operational model (2)[35] was used to determine the transduction ratios (τ/KA).2 E=Emin+(Emax−Emin)/1+(1+A/10^logKA)/10^logRA^n where E is the effect of the ligand, [A] is the concentration of test ligands, Emax is the maximal response of the system, Emin is the minimum response of the system, logKA is the logarithm of the equilibrium dissociation constant, n is the slope of the transducer function, log R is the logarithm of the transduction ratio (τ/KA).
Each experiment was analyzed using the operational model which all individual experiments were fitted with a global shared slope. The LogR (equivalent to log [τ] /KA) values were estimated by GraphPad Prism (v.9.4.1) and were used to calculate the relative efficacy (RE) using Eqs.

human SSTR2 (Gi3) = biological target: T2, human SSTR2 (Gi3) (Homo sapiens, UniProt P30874); assay: G protein activation (BRET dissociation) assay, Gi3 at hSSTR2; type: cell-based;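 for Emax ± S.E.M.: percent of the maximal response to the reference somatostatin agonist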
T2 construct: host or cells: HEK293T cells
T2 sequence (P30874 whole entry): as above
Experimental: as §2, §3

human SSTR2 (GoA) = human SSTR2 (GoA) (Homo sapiens, UniProt P30874); assay: G protein activation (BRET dissociation) assay, GoA at hSSTR2;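 for Emax: percent of the maximal response to the reference somatostatin agonist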
Chain of human SSTR2 (GoA) (P30874 whole entry): as above
Experimental: as §2, §3

Dr-sstr2a = assay: PRESTO-Tango β-arrestin recruitment assay, Dr-sstr2a; type: cell-based, zebrafish (Danio rerio); conditions: HTLA cells, listed as Consomatin pG1
Excerpt: as §1
The assay was done as described in ref. [12].

Compound: CC(C)C[C@H](N)C(=O)N[C@@H](Cc1ccccc1)C(=O)N[C@H]1CSSC[C@@H](C(=O)N[C@@H](Cc2c[nH]c3ccccc23)C(=O)O)NC(=O)[C@H](CO)NC(=O)[C@H](CCCCN)NC(=O)[C@@H](Cc2c[nH]c3ccccc23)NC(=O)[C@H](Cc2ccccc2)NC1=O [pG1] (H-LFCF[dW]KSCW-OH; disulfide 3-8)
- Emax (human SSTR2 (Gi1)): 95.6 ± 8.52%
- Hill Slope (human SSTR2 (Gi1); Table S2, Gαi1): 0.81 ± 0.28
- Span ± S.E.M. (human SSTR2 (Gi1); Table S2, Gαi1): 87.89 ± 11.1
- EC50 (human SSTR2 (Gi1); Table S2, Gαi1, HEK293T, means ± S.E.M.): 6.46 nM
- GoA dissociation at Dr-sstr2a in words (Dr-sstr2a (GoA)): only induced GoA dissociation at the Dr-sstr2b but not the Dr-sstr2a
- solubility in aqueous solutions in words [1]: did not observe any obvious differences in the solubility
- ∆log(tau/Ka) (human SSTR2; Gi1 (Gαi1)): -1.977
- LogR, Mean (human SSTR2; Gi1, N: SS-14 4, Octreotide 2, pG1 4): 7.421
- LogR (human SSTR2; Gi1, replicate 1 (row r6)): 7.197
- LogR (human SSTR2; Gi1, replicate 2 (row r7)): 7.651
- LogR (human SSTR2; Gi1, replicate 3 (row r8)): 7.8528
- LogR (human SSTR2; Gi1, replicate 4 (row r9)): 6.983
- ∆log(tau/Ka) (human SSTR2; Gi2 (Gαi2)): -1.482
- LogR, Mean (human SSTR2; Gi2, N: SS-14 5, Octreotide 3, pG1 5): 7.871
- LogR (human SSTR2; Gi2, replicate 1 (row r6)): 7.692
- LogR (human SSTR2; Gi2, replicate 2 (row r7)): 7.679
- LogR (human SSTR2; Gi2, replicate 3 (row r8)): 7.686
- LogR (human SSTR2; Gi2, replicate 4 (row r9)): 8.256
- LogR (human SSTR2; Gi2, replicate 5 (row r10)): 8.0434
- ∆log(tau/Ka) (human SSTR2; Gi3 (Gαi3)): -1.406
- LogR, Mean (human SSTR2; Gi3, N: SS-14 3, Octreotide 2, pG1 3): 8.305
- LogR (human SSTR2; Gi3, replicate 1 (row r6)): 7.832
- LogR (human SSTR2; Gi3, replicate 2 (row r7)): 8.615
- LogR (human SSTR2; Gi3, replicate 3 (row r8)): 8.468
- ∆log(tau/Ka) (human SSTR2; GoA (GαoA)): -1.083
- LogR, Mean (human SSTR2; GoA, N: SS-14 4, Octreotide 2, pG1 2): 8.753
- LogR (human SSTR2; GoA, replicate 1 (row r6)): 8.653
- LogR (human SSTR2; GoA, replicate 4 (row r9)): 8.853
- ∆log(tau/Ka) (human SSTR2; GoB (GαoB)): -1.118
- LogR, Mean (human SSTR2; GoB, N: SS-14 2, Octreotide 2, pG1 3): 8.505
- LogR (human SSTR2; GoB, replicate 1 (row r6)): 8.36
- LogR (human SSTR2; GoB, replicate 2 (row r7)): 8.764
- LogR (human SSTR2; GoB, replicate 3 (row r8)): 8.39
- LogR ± S.E.M. (human SSTR2; Gαi1): 7.42 ± 0.20
- RE (human SSTR2; Gαi1, 10^∆log(τ/KA)): 0.01
- ∆LogR ± S.E.M. (human SSTR2; Gαi1): -1.98 ± 0.27
- LogR ± S.E.M. (human SSTR2; Gαi2): 7.87 ± 0.12
- RE (human SSTR2; Gαi2): 0.033
- ∆LogR ± S.E.M. (human SSTR2; Gαi2): -1.48 ± 0.31
- LogR ± S.E.M. (human SSTR2; Gαi3): 8.30 ± 0.24
- RE (human SSTR2; Gαi3): 0.039
- ∆LogR ± S.E.M. (human SSTR2; Gαi3): -1.41 ± 0.26
- LogR ± S.E.M. (human SSTR2; GαoA): 8.75 ± 0.10
- RE (human SSTR2; GαoA): 0.082
- ∆LogR ± S.E.M. (human SSTR2; GαoA): -1.08 ± 0.13
- LogR ± S.E.M. (human SSTR2; GαoB): 8.50 ± 0.13
- RE (human SSTR2; GαoB): 0.076
- ∆LogR ± S.E.M. (human SSTR2; GαoB): -1.12 ± 0.14
- G protein bias in words (human SSTR2): does not bias towards Gi1 protein but preferentially couples to GoA and GoB protein
- G protein bias in words (human SSTR2; listed as Consomatin pG1): displays G protein bias towards Go subunits
- Emax (human SSTR2 (Gi3)): 75.2 ± 7.38%
- Hill Slope (human SSTR2 (Gi3); Table S2, Gαi3): 0.70 ± 0.18
- Span ± S.E.M. (human SSTR2 (Gi3); Table S2, Gαi3): 75.57 ± 8.97
- EC50 (human SSTR2 (GoA)): 5.13 nM
- Hill Slope (human SSTR2 (GoA); Table S2, GαoA): 1.04 ± 0.25
- Span ± S.E.M. (human SSTR2 (GoA); Table S2, GαoA): 97.45 ± 6.80
- GoA activation/dissociation in words (human SSTR2 (GoA); hSSTR2, HEK293T cells): most potent at dissociating GoA protein among all Gi/o proteins tested
- Emax (human SSTR2 (GoA); read-out: Emax ± S.E.M.): 97.9 ± 4.11%
- activation of Dr-sstr2a in words (Dr-sstr2a): very low potency; also recorded: activates the zebrafish Dr-sstr2b (n = 3) but not Dr-sstr2a
